Source: patent publication US7223759B2, “Antibacterial 3,5-diaminopiperidine-substituted aromatic and heteroaromatic compounds” (Anadys Pharmaceuticals, Inc., priority 2003, dated 2007)

system: Escherichia coli (ATCC25922) or Staphylococcus aureus (ATCC25923); experiment: Antibacterial MIC, microdilution method in Mueller-Hinton medium; assay type: cell-based; settings: Escherichia coli, 18 h, MIC in E. coli or S. aureus; two-fold serial dilutions 64 to 0.5 μg/ml in duplicate; 18 hours of incubation at 35° C.; read-out: Potency (MIC)
Method: The antibacterial activity of the Formula I compounds was evaluated against standard bacterial strains by determining the minimal inhibitory concentration (MIC) to block growth. Each drug was assayed by the microdilution method in Mueller-Hinton medium, as recommended by the National Committee for Clinical Laboratory Standards. Approved Standard M7-A5: Methods for Dilution Antimicrobial Susceptibility Tests for Bacteria That Grow Aerobically 5th Ed. (National Committee for Clinical Laboratory Standards, Wayne, Pa., 2000). The tested bacterial strains included Escherichia coli (American Type Collection ATCC25922), Staphylococcus aureus (ATCC25923), and Pseudomonas aeruginosa (ATCC27853). Two-fold serial dilutions of each compound ranging from 64 to 0.5 μg/ml were tested in duplicate. The MIC was determined as the lowest concentration of each compound that prevented bacterial growth after 18 hours of incubation at 35° C. […] The mass of each compound in the Table was confirmed by LC-MS.

Question: Which MIC does the source give for `Cl.O=C(Nc1ccc(Nc2nc(NCCCn3ccnc3)nc(N3CCCCC3)n2)cc1O)c1ccc(Cl)cc1` here?
Answer: < 64 µg/mL

Question: `Cl.NC1C[C@H](N)CN(c2nc(Nc3ccc(Br)c4ccccc34)nc(N3C[C@H](N)C[C@H](N)C3)n2)C1` (stereo in doubt) [N-(4-bromo-naphthalen-1-yl)-4,6-Bis-((3R,5S)-3,5-diamino-piperidin-1-yl)-[1,3,5]triazine-2-amine] was tested. Which MIC did it give?
Answer: < 64 µg/mL

Question: For `Cl.NC1C[C@@H](N)CN(c2nc(Nc3ccc(O)cc3[N+](=O)[O-])nc(N3C[C@H](N)C[C@H](N)C3)n2)C1` (stereo in doubt) [N-(4-hydroxy-2-nitro-phenyl)-4,6-Bis-((3R,5S)-3,5-diamino-piperidin-1-yl)-[1,3,5]triazine-2-amine], which MIC is on record?
Answer: > 64 µg/mL

Question: Which MIC does the source give for `Cl.NC1C[C@@H](N)CN(c2nc(Nc3ccc(NC(=O)c4cc(Cl)ccc4O)cc3)nc(N3C[C@H](N)C[C@H](N)C3)n2)C1` (stereo in doubt) [N-[4-(5-chloro-2-hydroxy-benzoylamino)-phenyl]-4,6-Bis-((3R,5S)-3,5-diamino-piperidin-1-yl)-[1,3,5]triazine-2-amine] here?
Answer: < 16 µg/mL

Question: `Cl.N[C@@H]1C[C@H](N)CN(c2nc(N3C[C@H](N)C[C@H](N)C3)nc(-n3cnc4ccccc43)n2)C1` [1-(4,6-Bis-((3R,5S)-3,5-diamino-piperidin-1-yl)-[1,3,5]triazin-2-yl)-1H-benzoimidazole] was tested. Which MIC did it give?
Answer: > 64 µg/mL

Question: `NC1CCN(c2nc(N3C[C@H](N)C[C@H](N)C3)nc(N3C[C@H](N)C[C@H](N)C3)n2)CC1` [1-(4,6-Bis-((3R,5S)-3,5-diamino-piperidin-1-yl)-[1,3,5]triazin-2-yl)-piperidine-3-carboxylic aciddiethylamide] was tested. Which MIC did it give?
Answer: > 64 µg/mL

Question: `Cl.O=C(Nc1ccc(Nc2nc(N3CCCCC3)nc(N3CCCCC3)n2)cc1)c1ccc2ccccc2c1O` [1-Hydroxy-naphthalene-2-carboxylic acid {4-[4-((3S,5R)-3,5-diamino-piperidin-12-yl)-6-((3R,5R)-3,5-dihydroxy-piperidin-1-yl)-[1,3,5]triazin-2-ylamino]-phenyl}-amide] was tested. Which MIC did it give?
Answer: < 64 µg/mL

same assay, conditions: Escherichia coli, 18 h, read-out: Potency (MIC)

Question: With `N[C@@H]1C[C@H](N)CN(c2nc(Nc3ccc(NC(=O)c4ccc(Cl)cc4)c(O)c3)nc(NC3CCNCC3)n2)C1` as the molecule, how does the MIC read?
Answer: < 16 µg/mL

Question: How did the MIC turn out when `N[C@@H]1C[C@H](N)CN(c2cc(Nc3ccc(NC(=O)c4ccc5ccccc5c4O)cc3)cc(N3C[C@H](N)C[C@H](N)C3)n2)C1` [1-Hydroxy-naphthalene-2-carboxylic acid [4-(2,6-Bis-((3R,5S)-3,5-diamino-piperidin-1-yl)-pyridin-4-ylamino)-phenyl]-amide] was run?
Answer: < 16 µg/mL

Question: `N[C@@H]1C[C@H](N)CN(c2nc(N3C[C@H](N)C[C@H](N)C3)c(Cl)c(Nc3ccc(NC(=O)c4ccc5ccccc5c4O)cc3)c2Cl)C1` [1-Hydroxy-naphthalene-2-carboxylic acid [4-(3,5-dichloro-2,6-Bis-((3R,5S)-3,5-diamino-piperidin-1-yl)-pyridin-4-ylamino)-phenyl]-amide] was tested. Which MIC did it give?
Answer: < 16 µg/mL

Question: How did the MIC turn out when `N[C@@H]1C[C@H](N)CN(c2cc(Nc3ccc(NC(=O)c4ccc5ccccc5c4O)cc3)nc(N3C[C@H](N)C[C@H](N)C3)c2)C1` [1-Hydroxy-naphthalene-2-carboxylic acid [4-(4,6-Bis-((3R,5S)-3,5-diamino-piperidin-1-yl)-pyridin-2-ylamino)-phenyl]-amide] was run?
Answer: < 16 µg/mL

Question: For `NC[C@H]1[C@@H](O)CCN1c1nc(Nc2ccc(NC(=O)c3ccc4ccccc4c3O)cc2)nc(N2C[C@H](N)C[C@H](N)C2)n1` [1-Hydroxy-naphthalene-2-carboxylic acid {4-[4-((2S,3S)-2-aminomethyl-3-hydroxy-pyrrolidin-1-yl)-6-((3R,5S)-3,5-diamino-piperidin-1-yl)-[1,3,5]triazin-2-ylamino]-phenyl}-amide], which MIC is on record?
Answer: < 16 µg/mL

Question: For `NC[C@@H]1C[C@H](N)CN1c1nc(Nc2ccc(NC(=O)c3ccc4ccccc4c3O)cc2)nc(N2C[C@H](N)C[C@H](N)C2)n1` [1-Hydroxy-naphthalene-2-carboxylic acid {4-[4-((2S,4S)-4-amino-2-aminomethyl-pyrrolidin-1-yl)-6-((3R,5S)-3,5-diamino-piperidin-1-yl)-[1,3,5]triazine-2-ylamino]-phenyl}-amide], which MIC is on record?
Answer: < 16 µg/mL

Question: With `NC[C@@H]1CN(c2nc(Nc3ccc(NC(=O)c4ccc5ccccc5c4O)cc3)nc(N3C[C@H](N)C[C@H](N)C3)n2)CC[C@@H]1O` [1-Hydroxy-naphthalene-2-carboxylic acid {4-[4-((3R,4S)-3-aminomethyl-4-hydroxy-piperidin-1-yl)-6-((3R,5S)-3,5-diamino-piperidin-1-yl)-[1,3,5]triazin-2-ylamino]-phenyl}-amide] as the molecule, how does the MIC read?
Answer: < 16 µg/mL

Question: How did the MIC turn out when `NC[C@@H]1C[C@H](CN)CN(c2nc(Nc3ccc(NC(=O)c4ccc5ccccc5c4O)cc3)nc(N3C[C@H](N)C[C@H](N)C3)n2)C1` [1-Hydroxy-naphthalene-2-carboxylic acid {4-[4-((3R,5S)-3,5-bis-(aminomethyl)-piperidin-1-yl)-6-((3R,5S)-3,5-diamino-piperidin-1-yl)-[1,3,5]triazine-2-ylamino]-phenyl}-amide] was run?
Answer: < 16 µg/mL

Question: For `N[C@@H]1C[C@H](N)CN(c2nc(Nc3ccc(NC(=O)c4ccc5ccccc5c4O)cc3)nc(N3C[C@@H](N)[C@@H](N)C3)n2)C1` [1-Hydroxy-naphthalene-2-carboxylic acid {4-[4-((3R,5S)-3,5-diamino-piperidin-1-yl)-6-((3R,4S)-3,4-diamino-pyrrolidin-1-yl)-[1,3,5]triazin-2-ylamino]-phenyl}-amide], which MIC is on record?
Answer: < 16 µg/mL

Question: `COc1nc(Nc2ccc(NC(=O)c3ccc4ccccc4c3O)cc2)nc(N2C[C@H](N)C[C@H](N)C2)n1` [1-Hydroxy-naphthalene-2-carboxylic acid {4-[4-((3R,5S)-3,5-diamino-piperidin-1-yl)-6-methoxy-[1,3,5]triazin-2-ylamino]-phenyl}-amide] was tested. Which MIC did it give?
Answer: < 16 µg/mL

Question: For `N[C@@H]1C[C@H](N)CN(c2nc(Nc3ccc(NC(=O)c4ccc5ccccc5c4O)cc3)nc(N3C[C@@H](O)[C@@H](O)C3)n2)C1` [1-Hydroxy-naphthalene-2-carboxylic acid {4-[4-((3S,5R)-3,5-diamino-piperidin-1-yl)-6-((3R,4S)-3,4-dihydroxy-pyrrolidin-1-yl)-[1,3,5]triazin-2-ylamino]-phenyl}-amide], which MIC is on record?
Answer: < 64 µg/mL

Question: With `NCCN(CCN)c1nc(Nc2ccc(NC(=O)c3ccc4ccccc4c3O)cc2)nc(N2C[C@H](N)C[C@H](N)C2)n1` [1-Hydroxy-naphthalene-2-carboxylic acid {4-[4-[bis-(2-amino-ethyl)-amino]-6-((3R,5S)-3,5-diamino-piperidin-1-yl)-[1,3,5]triazin-2-ylamino]-phenyl}-amide] as the molecule, how does the MIC read?
Answer: < 16 µg/mL

Question: How did the MIC turn out when `N[C@@H]1C[C@H](N)CN(c2ccc(NC(=O)c3ccc4ccccc4c3O)cc2)C1` [1-Hydroxy-naphthalene-2-carboxylicacid [4-((3S,5R)-3,5-diamino-piperidin-1-yl)-phenyl]-amide] was run?
Answer: > 64 µg/mL

Question: How did the MIC turn out when `N[C@@H]1C[C@H](N)CN(c2cc(Nc3ccc(NC(=O)c4ccc5ccccc5c4O)cc3)nc(N3C[C@H](N)C[C@H](N)C3)n2)C1` [1-Hydroxy-naphthalene-2-carboxylicacid {4-[2-((3R,5S)-3,5-diamino-piperidin-1-yl)-6-((3S,5R)-3,5-diamino-piperidin-1-yl)-pyrimidin-4-ylamino]-phenyl}-amide] was run?
Answer: < 16 µg/mL

Question: `NCCNc1nc(Nc2ccc(NC(=O)c3ccc4ccccc4c3O)cc2)nc(N2C[C@H](N)C[C@H](N)C2)n1` [1-Hydroxy-naphthalene-2-carboxylicacid {4-[4-(2-amino-ethylamino)-6-((3R,5S)-3,5-diamino-piperidin-1-yl)-[1,3,5]triazin-2-ylamino]-phenyl}-amide] was tested. Which MIC did it give?
Answer: < 16 µg/mL

Question: Which MIC does the source give for `NC[C@@H]1C[C@@H](O)CN1c1nc(Nc2ccc(NC(=O)c3ccc4ccccc4c3O)cc2)nc(N2C[C@H](N)C[C@H](N)C2)n1` [1-Hydroxy-naphthalene-2-carboxylicacid {4-[4-((2S,4R)-2-aminomethyl-4-hydroxy-pyrrolidin-1-yl)-6-((3R,5S)-3,5-diamino-piperidin-1-yl)-[1,3,5]triazin-2-ylamino]-phenyl}-amide] here?
Answer: < 64 µg/mL

Question: For `N[C@@H]1C[C@H](N)CN(c2nc(Nc3ccc(NC(=O)c4ccc5ccccc5c4O)cc3)nc(N3CCC[C@@H](O)C3)n2)C1` [1-Hydroxy-naphthalene-2-carboxylicacid {4-[4-((3S,5R)-3,5-diamino-piperidin-1-yl)-6-((R)-3-hydroxy-piperidin-1-yl)-[1,3,5]triazin-2-ylamino]-phenyl}-amide], which MIC is on record?
Answer: < 64 µg/mL

Question: For `N[C@@H]1C[C@H](N)CN(c2ncnc(Nc3ccc(NC(=O)c4ccc5ccccc5c4O)cc3)n2)C1` [1-Hydroxy-naphthalene-2-carboxylicacid {4-[4-((3S,5R)-3,5-diamino-piperidin-1-yl)-[1,3,5]triazin-2-ylamino]-phenyl}-amide], which MIC is on record?
Answer: < 16 µg/mL

same assay, conditions: MIC in E. coli or S. aureus; two-fold serial dilutions 64 to 0.5 μg/ml in duplicate; 18 hours of incubation at 35° C.

Question: How did the “Potency (MIC)” value turn out when `Cc1ccc(S(=O)(=O)N(Cc2ccccc2)c2ccc(Nc3nc(N4C[C@H](N)C[C@H](N)C4)nc(N4CC[C@H](O)[C@@H]4CN)n3)c(O)c2)cc1` was run?
Answer: + (+ means MIC<64 μg/ml in E. coli or S. aureus)

Question: For “7-[4-((2S,4S)-4-Amino-2-aminomethyl-pyrrolidin-11-yl)-6-((3R,5S)-3,5-diamino-piperidin-1-yl)-[1,3,5]triazin-2-ylamino]-4-methyl-chromen-2-one”, which “Potency (MIC)” value is on record?
Answer: − (− means MIC>64 μg/ml in E. coli or S. aureus)
